# System: early stressed maternally deprived mice
# Assay: Serum stress hormones after acute restraint stress in maternally separated (early stressed) mice fed experimental diets
# Type: in vivo, C57BL/6 mice
# Method: In this Example, the effects of 2-fucosyl-lactose on the production of serum corticosterone in early stressed maternally deprived mice were analyzed. Initially, mice pups were early stressed using a model of maternal separation. Particularly, one day after delivery, C57BL/6 mice pups were sexed and grouped as sham (non-stressed Control group) or maternally separated (MS—stressed group) animals. From day 2 until day 14 after delivery, the MS pups were removed from the dam and kept isolated for a period of 4 hours per day, typically, from 10:00 AM to 2:00 PM, in a thermostatted cup. During the same time period, pups from the sham group were daily handled for a period of five minutes in order to receive the same grade of habituation to a researcher's hands as the MS pups. Each dam had litters of 4 males and 2 females. Females were allowed to stay with the mother, while males were maternally deprived in order to avoid stressing the dam by removing all of the pups. Additionally, pups from the MS group were prematurely weaned, and thus permanently removed from the dam, at postnatal day 17, whereas sham pups were not weaned until postnatal day 21. At postnatal day 22, all pups in the MS group were pooled and four experimental groups were made before starting nutritional intervention. [table] At the nutritional intervention stage, mice were fed experimental diets for a period of eight weeks. After eight weeks, blood samples were taken from facial veins of the mice in order to measure basal stress hormones (i.e., corticosterone, adrenocorticotropic hormone (ACTH), and melatonin). Stress hormones were measured using luminex technology using a multiplex commercial kit (commercially available from Millipore Corporation, Billerica, Mass.) Seven days later, mice were submitted to an acute stress by restraint protocol. Particularly, mice were placed into a multi-drilled 50-ml centrifuge tube for 20 minutes. After this time, mice were extracted from the tube, and again, blood samples were taken in order to measure serum stress hormones immediately after the acute stressful event (i.e., restraint).
# [1] = MS-stressed mice, supplemented diet about 7 mg/mouse/day, post-restraint, stated for any of the experimental groups
substance,measurement,setting,value
2-fucosyl-lactose [2-fucosyllactose],"serum corticosterone levels in response to restraint, compared with MS mice on the control diet","AIN93G diet with about 7 mg/mouse/day for eight weeks, blood taken immediately after 20 minutes restraint, Group C vs MS control Group D",significantly lower
same,"serum corticosterone levels in response to restraint, compared with normal sham mice","MS-stressed mice, AIN93G diet with about 7 mg/mouse/day for eight weeks, blood taken immediately after 20 minutes restraint, Group C vs sham Group E",equal that of the normal sham mice
same,ACTH serum levels post-restraint,[1],no effects
same,melatonin serum levels post-restraint,[1],no effects

# Source: US20210401862A1, “METHODS FOR MODULATING CORTICOSTERONE LEVELS IN PSYCHOLOGICALLY STRESSED INDIVIDUALS” (ABBOTT LABORATORIES, priority 2012, published 2021)
